In test [1] the test system is peptide-pulsed target cells and transfected cells endogenously expressing the antigen. Briefly: Recall CTL responses of PBMCs from ovarian cancer patients. In kind it is cell-based, human. The note with it: for CTL Tumor / CTL Wildtype: data from ovarian cancer patients; for recognition by CTLs from cancer patient PBMCs: two patients with ovarian cancer, peptide-pulsed targets and transfected cells.
From the text: Immunogenicity was additionally confirmed using PBMCs isolated from cancer patients. Briefly, PBMCs were isolated from two patients with ovarian cancer, re-stimulated with peptide-pulsed monocytes and assayed for the ability to recognize peptide-pulsed target cells as well as transfected cells endogenously expressing the antigen.

Another test addresses HLA-A*0301 (Homo sapiens, UniProt P04439). The test is classed as binding. The note with it: Table XXIII, HLA-A3 supermotif-bearing peptides.
For the next test, the target named is HLA-A*1101 (Homo sapiens, UniProt P04439, A114D/D185E/E176A/F33Y/L180Q/S129P/T187R). The test is classed as binding. The note with it: Table XXIII, HLA-A3 supermotif-bearing peptides.
Sequence of HLA-A*1101 (P04439 25-365 limits assumed, stated change not applied): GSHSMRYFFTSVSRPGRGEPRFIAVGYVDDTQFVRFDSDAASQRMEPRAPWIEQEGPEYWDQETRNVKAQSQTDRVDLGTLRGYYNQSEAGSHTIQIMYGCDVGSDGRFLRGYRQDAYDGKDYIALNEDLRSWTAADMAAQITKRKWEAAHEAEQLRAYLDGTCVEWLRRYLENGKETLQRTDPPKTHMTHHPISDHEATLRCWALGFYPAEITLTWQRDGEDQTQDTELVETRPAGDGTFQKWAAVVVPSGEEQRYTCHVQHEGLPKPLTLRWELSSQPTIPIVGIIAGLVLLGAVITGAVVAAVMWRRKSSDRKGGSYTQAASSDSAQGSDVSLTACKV
A further test concerns the target HLA-A*3101 (Homo sapiens, UniProt P04439, A270S/D185E/E176V/E277Q/F33T/G231S/G80R/H175R/I121M/I218V/I322F/K168Q/L300P/L318F/M331R/P217A/Q94H/R138Q/T323A/T345S/T97I/V358M). The test is classed as binding. The note with it: Table XXIII, HLA-A3 supermotif-bearing peptides.
A further test addresses HLA-A*3301 (Homo sapiens, UniProt P04439, A270S/D185E/E176V/E277Q/E87N/F33T/G231S/H175R/I121M/I218V/I322F/K168Q/K210R/L300P/L318F/M331R/P217A/Q86R/Q94H/R138Q/T323A/T345S/T97I/V358M/Y195H). The test is classed as binding. The note with it: Table XXIII, HLA-A3 supermotif-bearing peptides.
Another test addresses HLA-A*6801 (Homo sapiens, UniProt P04439, A269V/D185E/E176V/E277Q/E87N/F33Y/G231S/I121M/I166T/I218V/L180W/L300P/L318F/N151K/P208A/P217A/Q86R/R169H/T345S). The test is classed as binding. The note with it: Table XXIII, HLA-A3 supermotif-bearing peptides.

pIC50: −log10 of the molar value. Where no end group is shown, it is not given here. Where only a bound is given, the exact number is not on record here.

Regarding `CC(C)C[C@H](NC(=O)[C@@H](N)Cc1c[nH]cn1)C(=O)N[C@@H](Cc1ccc(O)cc1)C(=O)N[C@@H](CCC(N)=O)C(=O)NCC(=O)N[C@@H](CS)C(=O)N[C@@H](CCC(N)=O)C(=O)N[C@H](C(=O)N[C@H](C(=O)O)C(C)C)C(C)C`, in test [1], the “CTL Tumor” value is 1/2 and the “CTL Wildtype” value was 2/2.
Taken in the same sequence, the figures for `CC[C@H](C)[C@H](N)C(=O)N[C@@H](CC(C)C)C(=O)N[C@@H](Cc1c[nH]cn1)C(=O)N[C@@H](CC(N)=O)C(=O)NCC(=O)N[C@@H](C)C(=O)N[C@@H](Cc1ccc(O)cc1)C(=O)N[C@@H](CO)C(=O)N[C@@H](CC(C)C)C(=O)O` were 2/2 and 2/2.
In the same order, the values of `CSCC[C@H](NC(=O)[C@@H](N)C(C)C)C(=O)N[C@@H](C)C(=O)NCC(=O)N[C@H](C(=O)NCC(=O)N[C@@H](CO)C(=O)N1CCC[C@H]1C(=O)N[C@@H](Cc1ccc(O)cc1)C(=O)N[C@H](C(=O)O)C(C)C)C(C)C` are 1/2 and 1/2.
In the case of `CC(C)C[C@H](NC(=O)[C@@H](N)Cc1c[nH]cn1)C(=O)N[C@@H](Cc1ccc(O)cc1)C(=O)N[C@@H](CCC(N)=O)C(=O)NCC(=O)N[C@@H](CS)C(=O)N[C@@H](CCC(N)=O)C(=O)N[C@H](C(=O)N[C@H](C(=O)O)C(C)C)C(C)C` [Her2/neu.48], the “recognition by CTLs from cancer patient PBMCs” value (shortened to “recognition by CTLs”) in test [1] is listed as “recognized in 2 donors”.
Turning to `CC[C@H](C)[C@H](NC(=O)[C@H](CCC(=O)O)NC(=O)[C@@H](NC(=O)[C@H](CC(C)C)NC(=O)[C@H](CO)NC(=O)[C@H](CCCNC(=N)N)NC(=O)[C@H](CC(C)C)NC(=O)[C@@H](N)CCC(N)=O)[C@@H](C)O)C(=O)N[C@@H](CC(C)C)C(=O)N[C@@H](CCCCN)C(=O)O` [Her2/neu.141], the pIC50 against HLA-A*0301 is 7.26; at HLA-A*1101, 6.34; against HLA-A*3101, 6.18; on HLA-A*3301, 5.21; against HLA-A*6801, under 5.00.
Taken in the same sequence, the figures for `CC[C@H](C)[C@H](N)C(=O)N[C@H](C(=O)N[C@@H](CCCCN)C(=O)NCC(=O)NCC(=O)N[C@H](C(=O)N[C@@H](CC(C)C)C(=O)N[C@H](C(=O)N[C@@H](CCC(N)=O)C(=O)N[C@@H](CCCCN)C(=O)O)[C@@H](C)CC)C(C)C)C(C)C` [Her2/neu.148.V2K10] were 7.59, 6.99, 6.35, 5.18 and 7.57.
For `CC[C@H](C)[C@H](N)C(=O)N[C@H](C(=O)N[C@@H](CCCCN)C(=O)NCC(=O)NCC(=O)N[C@H](C(=O)N[C@@H](CC(C)C)C(=O)N[C@H](C(=O)N[C@@H](CCC(N)=O)C(=O)N[C@@H](CCCNC(=N)N)C(=O)O)[C@@H](C)CC)C(C)C)C(C)C` [Her2/neu.148.V2], the pIC50 is 6.56 on HLA-A*0301, 5.12 on HLA-A*1101, 7.14 on HLA-A*3101 and 7.54 on HLA-A*6801.
In the case of `CC[C@H](C)[C@H](N)C(=O)N[C@@H](CC(C)C)C(=O)N[C@@H](CCCCN)C(=O)NCC(=O)NCC(=O)N[C@H](C(=O)N[C@@H](CC(C)C)C(=O)N[C@H](C(=O)N[C@@H](CCC(N)=O)C(=O)N[C@@H](CCCNC(=N)N)C(=O)O)[C@@H](C)CC)C(C)C` [Her2/neu.148], the negative logarithm of the IC50 (pIC50) was 6.56 at HLA-A*0301; under 5.00 at HLA-A*1101; 7.60 against HLA-A*3101; 6.92 against HLA-A*3301; 6.69 on HLA-A*6801.
In the case of `CC[C@H](C)[C@H](NC(=O)[C@H](CC(C)C)NC(=O)[C@@H](N)C(C)C)C(=O)N[C@@H](CCC(N)=O)C(=O)N[C@@H](CCCNC(=N)N)C(=O)N[C@@H](CC(N)=O)C(=O)N1CCC[C@H]1C(=O)N[C@@H](CCC(N)=O)C(=O)N[C@@H](CC(C)C)C(=O)O` [Her2/neu.153], the “recognition by CTLs” value in test [1] was “recognized peptide-pulsed targets only”.
Consider `CC[C@H](C)[C@H](NC(=O)[C@H](CC(=O)O)NC(=O)[C@H](CCCCN)NC(=O)[C@H](Cc1c[nH]c2ccccc12)NC(=O)[C@H](CC(C)C)NC(=O)[C@@H](NC(=O)[C@@H](N)[C@@H](C)O)C(C)C)C(=O)N[C@@H](Cc1ccccc1)C(=O)N[C@@H](Cc1c[nH]cn1)C(=O)N[C@@H](CCCNC(=N)N)C(=O)O` [Her2/neu.166.V2R10], for which the pIC50 was 5.07 against HLA-A*0301; 6.54 on HLA-A*1101; 6.22 on HLA-A*3101; 7.12 against HLA-A*3301; 7.38 at HLA-A*6801.
With `CC[C@H](C)[C@H](N)C(=O)N[C@H](C(=O)N[C@@H](Cc1c[nH]c2ccccc12)C(=O)N[C@@H](CCCCN)C(=O)N[C@@H](CC(=O)O)C(=O)N[C@H](C(=O)N[C@@H](Cc1ccccc1)C(=O)N[C@@H](Cc1c[nH]cn1)C(=O)N[C@@H](CCCNC(=N)N)C(=O)O)[C@@H](C)CC)C(C)C` [Her2/neu.167.V2R9], the negative logarithm of the IC50 (pIC50) against HLA-A*0301 is 6.84; on HLA-A*1101, 6.54; against HLA-A*3101 it was 8.22; against HLA-A*3301, 7.80; against HLA-A*6801 it was 7.82.
Taken in the same sequence, the figures for `CC[C@H](C)[C@H](N)C(=O)N[C@H](C(=O)N[C@@H](Cc1c[nH]c2ccccc12)C(=O)N[C@@H](CCCCN)C(=O)N[C@@H](CC(=O)O)C(=O)N[C@H](C(=O)N[C@@H](Cc1ccccc1)C(=O)N[C@@H](Cc1c[nH]cn1)C(=O)N[C@@H](CCCCN)C(=O)O)[C@@H](C)CC)C(C)C` [Her2/neu.167.V2] were 7.64, 7.40, 6.61, 6.07 and 6.75.
Taken in the same sequence, the figures for `CC[C@H](C)[C@H](N)C(=O)N[C@@H](CC(C)C)C(=O)N[C@@H](Cc1c[nH]c2ccccc12)C(=O)N[C@@H](CCCCN)C(=O)N[C@@H](CC(=O)O)C(=O)N[C@H](C(=O)N[C@@H](Cc1ccccc1)C(=O)N[C@@H](Cc1c[nH]cn1)C(=O)N[C@@H](CCCCN)C(=O)O)[C@@H](C)CC` [Her2/neu.167] were 7.41, 7.72, 7.09, 6.01 and 5.76.
For the compound `CC(C)[C@H](NC(=O)[C@@H](NC(=O)[C@@H](N)CCCNC(=N)N)[C@@H](C)O)C(=O)N[C@@H](CS)C(=O)N[C@@H](C)C(=O)NCC(=O)NCC(=O)N[C@@H](CS)C(=O)N[C@@H](C)C(=O)N[C@@H](CCCNC(=N)N)C(=O)O` [Her2/neu.217], the pIC50 was 5.79 against HLA-A*0301, 6.34 against HLA-A*1101, 7.40 at HLA-A*3101 and 6.49 against HLA-A*6801.
Take `CC[C@H](C)[C@H](NC(=O)[C@@H](N)CCCCN)C(=O)N[C@@H](Cc1ccccc1)C(=O)NCC(=O)N[C@@H](CO)C(=O)N[C@@H](CC(C)C)C(=O)N[C@@H](C)C(=O)N[C@@H](Cc1ccccc1)C(=O)N[C@@H](CC(C)C)C(=O)O` [Her2/neu.369]: the “recognition by CTLs” value in test [1] is on record as “recognized in 2 donors”.
With `CC[C@H](C)[C@H](N)C(=O)N[C@@H](CC(C)C)C(=O)N[C@@H](Cc1c[nH]cn1)C(=O)N[C@@H](CC(N)=O)C(=O)NCC(=O)N[C@@H](C)C(=O)N[C@@H](Cc1ccc(O)cc1)C(=O)N[C@@H](CO)C(=O)N[C@@H](CC(C)C)C(=O)O` [Her2/neu.435], the “recognition by CTLs” value in test [1] is listed as “recognized in 2 donors”.
As for TILWKDIFHK [Her2/neu.166], the pIC50 against HLA-A*0301 was 6.59; against HLA-A*1101 it was 8.77; at HLA-A*3101, 6.31; at HLA-A*3301, 6.16; at HLA-A*6801, 6.70.

(Values after patent publication US20040121946A9, “Inducing cellular immune responses to her2/neu using peptide and nucleic acid compositions” (priority 2002, published 2004).)
